PubChem BioAssay (NCI)
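Compound exposure: 48 hours, 5 concentrations, 96-well plates. TGI marks complete inhibition of growth.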

What was measured:
Assay in all cases: NCI-60 cell line screen, 48 h
UO-31 renal = test system: UO-31 renal
UACC-257 melanoma = test system: UACC-257 melanoma
MDA-N = test system: MDA-N
SK-OV-3 ovarian = test system: SK-OV-3 ovarian
COLO 205 colon = test system: COLO 205 colon
MCF7 breast = test system: MCF7 breast
HOP-62 NSCLC = test system: HOP-62 NSCLC
PC-3 prostate = test system: PC-3 prostate
HCC-2998 colon = test system: HCC-2998 colon
HCT-15 colon = test system: HCT-15 colon
MDA-MB-435 = test system: MDA-MB-435
T-47D breast = test system: T-47D breast
HS 578T breast = test system: HS 578T breast
A549 NSCLC = test system: A549 NSCLC
HL-60(TB) leukemia = test system: HL-60(TB) leukemia
SK-MEL-5 melanoma = test system: SK-MEL-5 melanoma
HOP-92 NSCLC = test system: HOP-92 NSCLC
LOX IMVI melanoma = test system: LOX IMVI melanoma
NCI-H460 lung = test system: NCI-H460 lung
OVCAR-8 ovarian = test system: OVCAR-8 ovarian
SN12C renal = test system: SN12C renal
UACC-62 melanoma = test system: UACC-62 melanoma
NCI-H226 lung = test system: NCI-H226 lung
HCT-116 colon = test system: HCT-116 colon
EKVX NSCLC = test system: EKVX NSCLC
CCRF-CEM leukemia = test system: CCRF-CEM leukemia
OVCAR-5 ovarian = test system: OVCAR-5 ovarian
RXF 393 renal = test system: RXF 393 renal
OVCAR-4 ovarian = test system: OVCAR-4 ovarian
ACHN renal = test system: ACHN renal
OVCAR-3 ovarian = test system: OVCAR-3 ovarian
NCI-H23 lung = test system: NCI-H23 lung
DU-145 prostate = test system: DU-145 prostate
IGROV1 ovarian = test system: IGROV1 ovarian
TK-10 renal = test system: TK-10 renal
SF-268 CNS = test system: SF-268 CNS
RPMI-8226 leukemia = test system: RPMI-8226 leukemia
SK-MEL-28 melanoma = test system: SK-MEL-28 melanoma
SF-539 CNS = test system: SF-539 CNS
M14 melanoma = test system: M14 melanoma
NCI/ADR-RES ovarian = test system: NCI/ADR-RES ovarian
CAKI-1 renal = test system: CAKI-1 renal
BT-549 breast = test system: BT-549 breast
K-562 leukemia = test system: K-562 leukemia
SR leukemia = test system: SR leukemia
SNB-75 CNS = test system: SNB-75 CNS
SW-620 colon = test system: SW-620 colon
A498 renal = test system: A498 renal
KM12 colon = test system: KM12 colon
MDA-MB-231 breast = test system: MDA-MB-231 breast
786-0 renal = test system: 786-0 renal
SK-MEL-2 melanoma = test system: SK-MEL-2 melanoma
U251 CNS = test system: U251 CNS
SF-295 CNS = test system: SF-295 CNS
MALME-3M melanoma = test system: MALME-3M melanoma
SNB-19 CNS = test system: SNB-19 CNS

SMILES: CCOC(=O)c1c2ccccc2n2c(=O)n(C)nnc12
- TGI (UO-31 renal): > 100 µM
- TGI (UACC-257 melanoma): > 100 µM
- TGI (MDA-N): > 100 µM
- TGI (SK-OV-3 ovarian): > 100 µM
- TGI (COLO 205 colon): > 100 µM
- TGI (MCF7 breast): > 100 µM
- TGI (HOP-62 NSCLC): > 100 µM
- TGI (PC-3 prostate): > 100 µM
- TGI (HCC-2998 colon): > 100 µM
- TGI (HCT-15 colon): > 100 µM
- TGI (MDA-MB-435): > 100 µM
- TGI (T-47D breast): > 100 µM
- TGI (HS 578T breast): > 100 µM
- TGI (A549 NSCLC): > 100 µM
- TGI (HL-60(TB) leukemia): > 100 µM
- TGI (SK-MEL-5 melanoma): > 100 µM
- TGI (HOP-92 NSCLC): > 100 µM
- TGI (LOX IMVI melanoma): > 100 µM
- TGI (NCI-H460 lung): > 100 µM
- TGI (OVCAR-8 ovarian): > 100 µM
- TGI (SN12C renal): > 100 µM
- TGI (UACC-62 melanoma): > 100 µM
- TGI (NCI-H226 lung): > 100 µM
- TGI (HCT-116 colon): > 100 µM
- TGI (EKVX NSCLC): > 100 µM
- TGI (CCRF-CEM leukemia): > 100 µM
- TGI (OVCAR-5 ovarian): > 100 µM
- TGI (RXF 393 renal): 99.1 µM
- TGI (OVCAR-4 ovarian): > 100 µM
- TGI (ACHN renal): > 100 µM
- TGI (OVCAR-3 ovarian): > 100 µM
- TGI (NCI-H23 lung): > 100 µM
- TGI (DU-145 prostate): > 100 µM
- TGI (IGROV1 ovarian): > 100 µM
- TGI (TK-10 renal): > 100 µM
- TGI (SF-268 CNS): > 100 µM
- TGI (RPMI-8226 leukemia): > 100 µM
- TGI (SK-MEL-28 melanoma): > 100 µM
- TGI (SF-539 CNS): > 100 µM
- TGI (M14 melanoma): > 100 µM
- TGI (NCI/ADR-RES ovarian): > 100 µM
- TGI (CAKI-1 renal): > 100 µM
- TGI (BT-549 breast): > 100 µM
- TGI (K-562 leukemia): > 100 µM
- TGI (SR leukemia): > 90.7 µM
- TGI (SNB-75 CNS): > 100 µM
- TGI (SW-620 colon): > 100 µM
- TGI (A498 renal): > 100 µM
- TGI (KM12 colon): > 100 µM
- TGI (MDA-MB-231 breast): > 100 µM
- TGI (786-0 renal): > 100 µM
- TGI (SK-MEL-2 melanoma): > 100 µM
- TGI (U251 CNS): > 100 µM
- TGI (SF-295 CNS): > 100 µM
- TGI (MALME-3M melanoma): > 100 µM
- TGI (SNB-19 CNS): > 100 µM
